Consider 19 molecules from US10646469B2, “Substituted indole derivatives as dengue viral replication inhibitors” (Janssen Pharmaceuticals, Inc., priority 2016, dated 2020).

For series [1], the system named is DENV-2 16681 strain. Put plainly: DENV-2 antiviral assay (eGFP-labeled virus in Vero cells). To be noted: DENV-2 16681 eGFP, MOI 0.5, 3 days. In kind it is cell-based, Dengue virus. The procedure: The antiviral activity of all the compounds of the invention was tested against the DENV-2 16681 strain which was labeled with enhanced green fluorescent protein (eGPF). The culture medium consists of minimal essential medium supplemented with 2% of heat-inactivated fetal calf serum, 0.04% gentamycin (50 mg/mL) and 2 mM of L-glutamine. Vero cells, obtained from ECACC, were suspended in culture medium and 25 μL was added to 384-well plates (2500 cells/well), which already contain the antiviral compounds. Typically, these plates contain a 5-fold serial dilution of 9 dilution steps of the test compound at 200 times the final concentration in 100% DMSO (200 nL). […] Finally, each plate contains wells which are assigned as virus controls (containing cells and virus in the absence of compound), cell controls (containing cells in the absence of virus and compound) and medium controls (containing medium in the absence of cells, virus and compounds). To the wells assigned as medium control, 25 μL of culture medium was added instead of Vero cells. Once the cells were added to the plates, the plates were incubated for 30 minutes at room temperature to allow the cells to distribute evenly within the wells. Next, the plates were incubated in a fully humidified incubator (37° C., 5% CO2) until the next day. Then, DENV-2 strain 16681, labeled with eGFP, was added at a multiplicity of infection (MOI) of 0.5. Therefore, 15 μL of virus suspension was added to all the wells containing test compound and to the wells assigned as virus control. In parallel, 15 μL of culture medium was added to the medium and cell controls. Next, the plates were incubated for 3 days in a fully humidified incubator (37° C., 5% CO2). At the day of the read out, the eGFP fluorescence was measured using an automated fluorescence microscope at 488 nm (blue laser). Using an in-house LIMS system, inhibition dose response curves for each compound were calculated and the half maximal effective concentration (EC50) was determined. Therefore, the percent inhibition (I) for every test concentration is calculated using the following formula: I=100*([…])/(SVC−SCC); ST, SCC and SVC are the amount of eGFP signal in the test compound, cell control and virus control wells, respectively. The EC50 represents the concentration of a compound at which the virus replication is inhibited with 50%, as measured by a 50% reduction of the eGFP fluorescent intensity compared to the virus control. The EC50 is calculated using linear interpolation (Table 1).

The nature of series [2]: Toxicity on the same plates (ATPlite cell viability). To be noted: African green monkey, CC50, Vero cells, same plates as DENV-2 antiviral assay. In general terms: ATP-based viability assays read luminescence as a measure of living cells.
Series [3] deals with Vero cells. Described as above. To be noted: Vero cells, same plates as DENV-2 antiviral assay.
Setting [4] is: Dengue virus, DENV2, Vero, 72 h.

Each structure is given as a SMILES string.

The term EC50 denotes the concentration giving half of the maximal effect. The CC50 is the concentration at which the toxic effect on the cells reaches its halfway point. A lower CC50 goes with greater toxicity to the cells. In turn, `COc1cc(NC(C(=O)c2c[nH]c3cc(F)c(C(F)(F)F)cc23)c2ccc(F)cc2OC)cc(OCCO)c1` (racemic) [Compound 3, 2-(4-fluoro-2-methoxyphenyl)-1-(6-fluoro-5-(trifluoromethyl)-1H-indol-3-yl)-2-((3-(2-hydroxyethoxy)-5-methoxyphenyl)amino)ethanone] displayed an EC50 in series [1] (setting [4]) of 0.00099 µM. This molecule also showed a 50% cytotoxic concentration (CC50) in series [2] of 3 µM.
In the same order, the values of `COc1cc(NC(C(=O)c2c[nH]c3c(C)cc(C(F)(F)F)cc23)c2ccc(F)cc2OC)cc(OCCO)c1` (racemic) [Compound 4, 2-(4-fluoro-2-methoxyphenyl)-2-((3-(2-hydroxyethoxy)-5-methoxyphenyl)amino)-1-(7-methyl-5-(trifluoromethyl)-1H-indol-3-yl)ethanone] are 0.00062 µM and 6.1 µM.
Consider `COc1cc(NC(C(=O)c2c[nH]c3ccc(OC(F)(F)F)cc23)c2ccc(F)cc2OC)cc(OCCO)c1` (racemic) [Compound 5, 2-(4-fluoro-2-methoxyphenyl)-2-((3-(2-hydroxyethoxy)-5-methoxyphenyl)amino)-1-(5-(trifluoromethoxy)-1H-indol-3-yl)ethanone], for which the response in series [1] (setting [4]) was half-maximal at 0.0005 µM (EC50). The CC50 in series [2] worked out at 4.5 µM.
The like results for `COc1cc(NC(C(=O)c2c[nH]c3c(C)cc(OC(F)(F)F)cc23)c2ccc(F)cc2OC)cc(OCCO)c1` (racemic) [Compound 8, 2-(4-fluoro-2-methoxyphenyl)-2-((3-(2-hydroxyethoxy)-5-methoxyphenyl)amino)-1-(7-methyl-5-(trifluoromethoxy)-1H-indol-3-yl)ethanone] were, in that order, 0.00041 µM and 4.7 µM.
The like results for `COc1cc(NC(C(=O)c2c[nH]c3ccc(C(F)(F)F)cc23)c2ccc(Cl)cc2OC)cc(OCCO)c1` (racemic) [Compound 9, 2-(4-chloro-2-methoxyphenyl)-2-((3-(2-hydroxyethoxy)-5-methoxyphenyl)amino)-1-(5-(trifluoromethyl)-1H-indol-3-yl)ethanone] were, in that order, 0.00029 µM and 2.5 µM.
Consider `COc1cc(NC(C(=O)c2c[nH]c3cc(OC)c(C(F)(F)F)cc23)c2ccc(Cl)cc2OC)cc(OCCO)c1` (racemic) [Compound 10, 2-(4-chloro-2-methoxyphenyl)-2-((3-(2-hydroxyethoxy)-5-methoxyphenyl)amino)-1-(6-methoxy-5-(trifluoromethyl)-1H-indol-3-yl)ethanone], for which the half-maximal effective concentration (EC50) in series [1] (setting [4]) came out at 0.00027 µM. This molecule returned a CC50 in series [2] of 3.2 µM.
As to `COc1cc(NC(C(=O)c2c[nH]c3cc(OC)c(OC(F)(F)F)cc23)c2ccc(Cl)cc2OC)cc(OCCO)c1` (racemic) [Compound 14, 2-(4-chloro-2-methoxyphenyl)-2-((3-(2-hydroxyethoxy)-5-methoxyphenyl)amino)-1-(6-methoxy-5-(trifluoromethoxy)-1H-indol-3-yl)ethanone], a half-maximal effect in series [1] (setting [4]) (EC50) was put at 0.00034 µM. In series [2], this molecule gave a CC50 of 3.5 µM.
Turning to `COc1cc(NC(C(=O)c2c[nH]c3ccc(C(F)(F)F)cc23)c2ccc(F)cc2OC)cc(OCCO)c1` (single isomer, unassigned) [Compound 1A, 2-(4-fluoro-2-methoxyphenyl)-2-((3-(2-hydroxyethoxy)-5-methoxyphenyl)amino)-1-(5-(trifluoromethyl)-1H-indol-3-yl)ethanone], the EC50 in series [1] worked out at 0.064 µM. The same molecule returned a CC50 in series [3] of 6.8 µM.
In the same order, the values of `COc1cc(NC(C(=O)c2c[nH]c3cc(OC)c(C(F)(F)F)cc23)c2ccc(F)cc2OC)cc(OCCO)c1` (single isomer, unassigned) [Compound 2B, 2-(4-fluoro-2-methoxyphenyl)-2-((3-(2-hydroxyethoxy)-5-methoxyphenyl)amino)-1-(6-methoxy-5-(trifluoromethyl)-1H-indol-3-yl)ethanone] are 0.024 µM and 6.8 µM.
The like results for `COc1cc(NC(C(=O)c2c[nH]c3cc(F)c(C(F)(F)F)cc23)c2ccc(F)cc2OC)cc(OCCO)c1` (single isomer, unassigned) [Compound 3B, 2-(4-fluoro-2-methoxyphenyl)-1-(6-fluoro-5-(trifluoromethyl)-1H-indol-3-yl)-2-((3-(2-hydroxyethoxy)-5-methoxyphenyl)amino)ethanone] were, in that order, 0.015 µM and 7.8 µM.
In turn, `COc1cc(NC(C(=O)c2c[nH]c3c(C)cc(C(F)(F)F)cc23)c2ccc(F)cc2OC)cc(OCCO)c1` (single isomer, unassigned) [Compound 4A, 2-(4-fluoro-2-methoxyphenyl)-2-((3-(2-hydroxyethoxy)-5-methoxyphenyl)amino)-1-(7-methyl-5-(trifluoromethyl)-1H-indol-3-yl)ethanone] showed a concentration giving a half-maximal response (EC50) in series [1] of 0.063 µM. Moreover, the CC50 in series [3] amounted to 11 µM.
The like results for `COc1cc(NC(C(=O)c2c[nH]c3cc(OC)c(OC(F)(F)F)cc23)c2ccc(F)cc2OC)cc(OCCO)c1` (single isomer, unassigned) [Compound 6B, 2-(4-fluoro-2-methoxyphenyl)-2-((3-(2-hydroxyethoxy)-5-methoxyphenyl)amino)-1-(6-methoxy-5-(trifluoromethoxy)-1H-indol-3-yl)ethanone] were, in that order, 0.098 µM and 10 µM.
In the same order, the values of `COc1cc(NC(C(=O)c2c[nH]c3cc(F)c(OC(F)(F)F)cc23)c2ccc(F)cc2OC)cc(OCCO)c1` (single isomer, unassigned) [Compound 7A, 2-(4-fluoro-2-methoxyphenyl)-1-(6-fluoro-5-(trifluoromethoxy)-1H-indol-3-yl)-2-((3-(2-hydroxyethoxy)-5-methoxyphenyl)amino)ethanone] are 0.025 µM and 6.7 µM.
In the same order, the values of `COc1cc(NC(C(=O)c2c[nH]c3c(C)cc(OC(F)(F)F)cc23)c2ccc(F)cc2OC)cc(OCCO)c1` (single isomer, unassigned) [Compound 8B, 2-(4-fluoro-2-methoxyphenyl)-2-((3-(2-hydroxyethoxy)-5-methoxyphenyl)amino)-1-(7-methyl-5-(trifluoromethoxy)-1H-indol-3-yl)ethanone] are 0.031 µM and 6 µM.
For the molecule `COc1cc(NC(C(=O)c2c[nH]c3cc(F)c(C(F)(F)F)cc23)c2ccc(Cl)cc2OC)cc(OCCO)c1` (single isomer, unassigned) [Compound 11B, 2-(4-chloro-2-methoxyphenyl)-1-(6-fluoro-5-(trifluoromethyl)-1H-indol-3-yl)-2-((3-(2-hydroxyethoxy)-5-methoxyphenyl)amino)ethanone], the EC50 in series [1] amounted to 0.015 µM. The same molecule displayed a CC50 in series [3] of 2.7 µM.
In the same order, the values of `COc1cc(NC(C(=O)c2c[nH]c3c(C)cc(C(F)(F)F)cc23)c2ccc(Cl)cc2OC)cc(OCCO)c1` (single isomer, unassigned) [Compound 12B, 2-(4-chloro-2-methoxyphenyl)-2-((3-(2-hydroxyethoxy)-5-methoxyphenyl)amino)-1-(7-methyl-5-(trifluoromethyl)-1H-indol-3-yl)ethanone] are 0.038 µM and 11 µM.
In the same order, the values of `COc1cc(NC(C(=O)c2c[nH]c3ccc(OC(F)(F)F)cc23)c2ccc(Cl)cc2OC)cc(OCCO)c1` (single isomer, unassigned) [Compound 13B, 2-(4-chloro-2-methoxyphenyl)-2-((3-(2-hydroxyethoxy)-5-methoxyphenyl)amino)-1-(5-(trifluoromethoxy)-1H-indol-3-yl)ethanone] are 0.0072 µM and 5.8 µM.
Molecule `COc1cc(NC(C(=O)c2c[nH]c3cc(OC)c(OC(F)(F)F)cc23)c2ccc(Cl)cc2OC)cc(OCCO)c1` (single isomer, unassigned) [Compound 14B, 2-(4-chloro-2-methoxyphenyl)-2-((3-(2-hydroxyethoxy)-5-methoxyphenyl)amino)-1-(6-methoxy-5-(trifluoromethoxy)-1H-indol-3-yl)ethanone] had an EC50 in series [1] of 0.0072 µM. In addition, in series [3], half-maximal cytotoxicity (CC50) was put at 5.4 µM.
The like results for `COc1cc(NC(C(=O)c2c[nH]c3c(C)cc(OC(F)(F)F)cc23)c2ccc(Cl)cc2OC)cc(OCCO)c1` (single isomer, unassigned) [Compound 16B, 2-(4-chloro-2-methoxyphenyl)-2-((3-(2-hydroxyethoxy)-5-methoxyphenyl)amino)-1-(7-methyl-5-(trifluoromethoxy)-1H-indol-3-yl)ethanone] were, in that order, 0.015 µM and 3.6 µM.
